Measurements from patent publication US20220411372A1, “SMALL-MOLECULE INHIBITORS FOR THE B-CATENIN/B-CELL LYMPHOMA 9 PROTEIN-PROTEIN INTERACTION” (H. Lee Moffitt Cancer Center and Research Institute, Inc., priority 2019, published 2022).

The compounds below were run against T1, β-catenin/BCL9 PPI (Homo sapiens, UniProt P35222) (assay: AlphaScreen competitive inhibition assay of the β-catenin/BCL9 PPI). Conditions: Table 1, inhibitors 1-14; read-out: Ki.
T1 construct: Full-length β-catenin (residues 1-781) were cloned into a pET-28b vector; made in house; host or cells: E. coli BL21 DE3 (β-catenin); BCL9 peptide synthesized by InnoPep Inc
T1 sequence (P35222 1-781): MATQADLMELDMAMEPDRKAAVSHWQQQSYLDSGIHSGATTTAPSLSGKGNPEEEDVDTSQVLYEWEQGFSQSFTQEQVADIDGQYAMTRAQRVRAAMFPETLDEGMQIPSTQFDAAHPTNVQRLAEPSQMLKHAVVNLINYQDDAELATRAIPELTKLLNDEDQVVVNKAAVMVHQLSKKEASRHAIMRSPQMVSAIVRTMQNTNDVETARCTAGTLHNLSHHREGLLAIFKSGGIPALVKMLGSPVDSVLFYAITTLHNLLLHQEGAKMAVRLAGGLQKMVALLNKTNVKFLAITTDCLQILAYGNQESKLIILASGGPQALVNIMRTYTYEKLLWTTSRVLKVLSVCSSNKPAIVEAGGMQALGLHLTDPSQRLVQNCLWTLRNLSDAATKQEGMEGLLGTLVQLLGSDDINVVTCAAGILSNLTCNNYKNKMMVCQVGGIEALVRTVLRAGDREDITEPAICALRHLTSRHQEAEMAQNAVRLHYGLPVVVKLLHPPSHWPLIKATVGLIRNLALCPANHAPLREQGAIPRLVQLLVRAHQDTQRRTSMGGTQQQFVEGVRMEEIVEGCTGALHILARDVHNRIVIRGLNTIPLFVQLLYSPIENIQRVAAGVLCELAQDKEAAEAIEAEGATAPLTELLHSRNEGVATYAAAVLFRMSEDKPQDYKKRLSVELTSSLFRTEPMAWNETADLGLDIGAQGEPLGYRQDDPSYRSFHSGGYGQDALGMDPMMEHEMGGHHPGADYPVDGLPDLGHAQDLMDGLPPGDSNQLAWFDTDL
Type: binding
Procedure: AlphaScreen Assays of β-Catenin and BCL9 Interaction. Experiments were performed in white opaque 384-well plates from PerkinElmer (Waltham, Mass.), and the samples were read on a Synergy 2 plate reader (Biotek, Winooski, Vt.) with excitation at 680 nm and emission at 570 nm. The standard AlphaScreen protocol was used with a sensitivity setting of 200. All dilutions were made in 1× assay buffer containing 25 mM Hepes (pH 7.4), 100 mM NaCl, 0.01% Triton X-100 and 0.1% BSA to minimize nonspecific interactions.
For the β-catenin/BCL9 assay, 5 nM biotinylated BCL9 and 40 nM His6-tagged β-catenin were incubated in assay buffer at 4° C. for 30 min. For the β-catenin/E-cadherin assay, 10 nM biotinylated human E-cadherin, and 40 nM His6-tagged human β-catenin were added and incubated in assay buffer at 4° C. for 30 min. Different concentrations of the tested inhibitor were added and incubated in 20 μL assay buffer at 4° C. for another 1 h. All of the assay plates were covered and gently mixed on an orbital shaker. The donor and acceptor beads were then added to the plates to a final concentration of 10 μg/mL in […]. The mixture was incubated for 1 h at 4° C. before detection. The IC50 value was determined by nonlinear least-square analysis of GraphPad Prism 5.0. […] All of the experiments were performed in triplicate and carried out in the presence of 1% DMSO for small-molecule inhibitors. Each compound was assayed at least by two independent experiments. The results were expressed as mean±standard deviation. The inhibitor selectivity for β-catenin/BCL9 over β-catenin/E-canderin interactions was defined as the ratio of the respective Ki value of β-catenin/E-cadherin interactions over that of β-catenin/BCL9 interactions.

Question: For `CC(C)c1ccc(COC(=O)[C@@H]2CCCN(c3cccc(OC(C)(C)C(=O)O)c3)C2)cc1` [Compound 1, (R)-2-(3-(3-(((4-isopropylbenzyl)oxy)carbonyl)piperidin-1-yl)phenoxy)-2-methylpropanoic acid], which Ki is on record?
Answer: The Ki was over 90 µM.

Same assay, conditions: Table 9, inhibitors 93-98, racemic; read-out: Ki

Question: How did the Ki turn out when `CC(C)c1ccc(CNC(=O)C2CCCN(c3cccc(OC(C)(C)C(=O)O)c3)C2)cc1` (racemic) [Compound 93, 2-(3-(3-((4-isopropylbenzyl)carbamoyl)piperidin-1-yl)phenoxy)-2-methylpropanoic acid] was run?
Answer: The Ki was at most 90 µM.

Question: With `CC(C)c1ccc(CN(C)C(=O)C2CCCN(c3cccc(OC(C)(C)C(=O)O)c3)C2)cc1` (racemic) [Compound 95, 2-(3-(3-((4-isopropylbenzyl)(methyl)carbamoyl)piperidin-1-yl)phenoxy)-2-methylpropanoic acid] as the compound, how does the Ki read?
Answer: The Ki was at most 90 µM.

Question: How did the Ki turn out when `CC(C)c1ccc(CN(C(=O)C2CCCN(c3cccc(OC(C)(C)C(=O)O)c3)C2)C(C)C)cc1` (racemic) [Compound 97, 2-(3-(3-(isopropyl(4-isopropylbenzyl)carbamoyl)piperidin-1-yl)phenoxy)-2-methylpropanoic acid] was run?
Answer: Its Ki is at most 90 µM.

Same assay, conditions: Table 10, inhibitors 99-106, racemic; read-out: Ki ± SD

Question: For `CC(C)(Oc1cccc(N2CCCC(C(=O)N(Cc3ccc(-c4cn[nH]c4)cc3)C3CC3)C2)c1)C(=O)O` (racemic) [Compound 99, 2-(3-(3-((4-(1H-pyrazol-4-yl)benzyl)(cyclopropyl)carbamoyl)piperidin-1-yl)phenoxy)-2-methylpropanoic acid], which Ki is on record?
Answer: Its Ki is over 90 µM.

Question: With `Cn1cc(-c2ccc(CN(C(=O)C3CCCN(c4cccc(OC(C)(C)C(=O)O)c4)C3)C3CC3)cc2)cn1` (racemic) [Compound 100, 2-(3-(3-(cyclopropyl(4-(1-methyl-1H-pyrazol-4-yl)benzyl)carbamoyl)piperidin-1-yl)phenoxy)-2-methylpropanoic acid] as the compound, how does the Ki read?
Answer: The Ki was over 90 µM.

Question: Which Ki does the source give for `CC(C)(Oc1cccc(N2CCCC(C(=O)N(Cc3ccc(-c4ccn[nH]4)cc3)C3CC3)C2)c1)C(=O)O` (racemic) [Compound 101, 2-(3-(3-((4-(1H-pyrazol-5-yl)benzyl)(cyclopropyl)carbamoyl)piperidin-1-yl)phenoxy)-2-methylpropanoic acid] here?
Answer: Its Ki is at most 90 µM.

Question: `Cn1nccc1-c1ccc(CN(C(=O)C2CCCN(c3cccc(OC(C)(C)C(=O)O)c3)C2)C2CC2)cc1` (racemic) [Compound 102, 2-(3-(3-(cyclopropyl(4-(1-methyl-1H-pyrazol-5-yl)benzyl)carbamoyl)piperidin-1-yl)phenoxy)-2-methylpropanoic acid] was tested. Which Ki did it give?
Answer: Its Ki is over 90 µM.

Question: For `CC(C)(Oc1cccc(N2CCCC(C(=O)N(Cc3ccc(-c4cccs4)cc3)C3CC3)C2)c1)C(=O)O` (racemic) [Compound 103, 2-(3-(3-(cyclopropyl(4-(thiophen-2-yl)benzyl)carbamoyl)piperidin-1-yl)phenoxy)-2-methylpropanoic acid], which Ki is on record?
Answer: Its Ki is at most 30 µM.

Question: `CC(C)(Oc1cccc(N2CCCC(C(=O)N(Cc3ccc(-c4ccsc4)cc3)C3CC3)C2)c1)C(=O)O` (racemic) [Compound 104, 2-(3-(3-(cyclopropyl(4-(thiophen-3-yl)benzyl)carbamoyl)piperidin-1-yl)phenoxy)-2-methylpropanoic acid] was tested. Which Ki did it give?
Answer: Its Ki is at most 30 µM.

Question: Which Ki does the source give for `CC(C)(Oc1cccc(N2CCCC(C(=O)N(Cc3ccc(-c4ccco4)cc3)C3CC3)C2)c1)C(=O)O` (racemic) [Compound 105, 2-(3-(3-(cyclopropyl(4-(furan-2-yl)benzyl)carbamoyl)piperidin-1-yl)phenoxy)-2-methylpropanoic acid] here?
Answer: The Ki was at most 90 µM.

Question: Which Ki does the source give for `CC(C)(Oc1cccc(N2CCCC(C(=O)N(Cc3ccc(-c4ccoc4)cc3)C3CC3)C2)c1)C(=O)O` (racemic) [Compound 106, 2-(3-(3-(cyclopropyl(4-(furan-3-yl)benzyl)carbamoyl)piperidin-1-yl)phenoxy)-2-methylpropanoic acid] here?
Answer: Its Ki is over 90 µM.

Same assay, conditions: Table 11, inhibitors 107-108, racemic; read-out: Ki ± SD

Question: For `COC(=O)C(C)(C)Oc1cccc(N2CCCC(C(=O)N(Cc3ccc(-c4cccs4)cc3)C3CC3)C2)c1` (racemic) [Compound 107, methyl 2-(3-(3-(cyclopropyl(4-(thiophen-2-yl)benzyl)carbamoyl)piperidin-1-yl)phenoxy)-2-methylpropanoate], which Ki is on record?
Answer: The Ki was over 90 µM.
